Source: PMC7730638, “Liposomes Composed by Membrane Lipid Extracts from Macrophage Cell Line as a Delivery of the Trypanocidal N,N’-Squaramide 17 towards Trypanosoma cruzi” (Materials, 2020)
Values joined by “and” are separate entries in the source; they are usually repeats but may differ in a detail not shown here. Equal values may be shown once.

Legend:
[1] = test system: T. cruzi (strain CL-Brener) epimastigote; assay: Trypanocidal activity on epimastigotes (resazurin); type: cell-based; details: Trypanosoma cruzi; 6.25 μM to 100 μM, 72 h
Experimental: (§1) VERO (ATCC CCL81) and RAW 264.7 cells (ATCC TIB71) were maintained in RPMI-1640 supplemented with 10% fetal bovine serum (FBS) (Sigma Aldrich, St. Louis, MO, USA) without phenol red at 37 °C and 5% CO2 [14]. […] Trypomastigotes were obtained from monolayers of infected VERO cells grown at 37 °C in an atmosphere with 5% CO2 in RPMI-1640, pH 7.4, supplemented with 10% FBS and 100 μg/mL gentamicin. […] Then, 2.5 × 10^5 epimastigotes/mL were resuspended in 150 μL and added to the microplates. After 48 h, resazurin was added (20 μL/well of resazurin −3 mM), incubated for further 24 h, and fluorescence was recorded as described above. Nanostructures’ effect on amastigotes was accessed in VERO cell line grown in RPMI medium containing 10% FBS and seeded at a density of 1 × 10^4 cells/well in 24-well microplates. […] Cells were fixed and stained with Kit for Fast Staining in Haematology (Figure S2), and the number of amastigotes was determined by counting 200 cells for each experimental group distributed in random microscopic fields. The IC50 values were determined by nonlinear regression in GraphPad Prism version 7.0 (GraphPad Software, San Diego, CA, USA). Selectivity indices (SI) were calculated using the formula: SI = CC50 cytotoxicity in VERO cells/IC50 cytotoxicity in intracellular amastigotes.

[2] = test system: T. cruzi intracellular amastigotes; assay: Trypanocidal activity on intracellular amastigotes in infected VERO cells (counting of stained cells); type: cell-based; details: Trypanosoma cruzi, 6.25 μM to 100 μM, 72 h
Experimental: as §1

[3] = Cytotoxicity in VERO cells (resazurin); type: cell-based; details: African green monkey, VERO cells (ATCC CCL81), 50 μM to 800 μM, read-out: VERO Cell CC50
Experimental: (§2) VERO (ATCC CCL81) and RAW 264.7 cells (ATCC TIB71) were maintained in RPMI-1640 supplemented with 10% fetal bovine serum (FBS) (Sigma Aldrich, St. Louis, MO, USA) without phenol red at 37 °C and 5% CO2 [14]. […] Trypomastigotes were obtained from monolayers of infected VERO cells grown at 37 °C in an atmosphere with 5% CO2 in RPMI-1640, pH 7.4, supplemented with 10% FBS and 100 μg/mL gentamicin.
(§3) The reference drug benznidazole (BZ) was dissolved in dimethyl sulfoxide (DMSO) at 5% (w/v) at 0.002 M (stock) and the final concentration of DMSO in the experiments never exceeded 0.25% (v/v) to not affect the cell viability. The MLV, MLS, and free S were dispersed or dissolved in deionized water. The final concentration of these treatments in the experiments never exceeded 0.01% (v/v). […] Thereafter, 20 μL of resazurin—(0.39 mM, Sigma Aldrich, St. Louis, MO, USA) was added to each well, followed by incubation for 2 h, and then fluorescence was read on a microplate reader SpectraMax M5 (570 nmex/595 nmem) (Molecular Devices, Sunnyvale, CA, USA). Percentage of cell viability was calculated using the equation below, where A is the arbitrary fluorescence units (AFU) of the treatments, B is AFU culture medium with resazurin and C is AFU of the control group. […]

[4] = Cytotoxicity in RAW 264.7 macrophages (resazurin); type: cell-based; details: mouse, RAW 264.7 macrophages (ATCC TIB71), 50 μM to 800 μM, read-out: RAW 264.7 Macrophage CC50
Experimental: as §2, §3

[5] = test system: Epimastigotes of T. cruzi; assay: Ultrastructural changes in epimastigotes (SEM); type: cell-based, Trypanosoma cruzi; details: half of IC50 (BZ 7.91 µM, S 6.56 µM), 72 h
Experimental: Epimastigotes of T. cruzi were grown at a density of 5 × 10^5 cells/mL in RPMI culture medium containing the compounds tested at concentrations of 7.91 µM (BZ), 6.56 µM (S), and 7.93 µM (MLS) corresponding to the half of IC50 of each compound. After 72 h these cultures were centrifuged at 1600× g for 10 min. Parasites were washed in PBS and fixed for 1 h at room temperature with 2% formaldehyde and 2.5% glutaraldehyde in sodium cacodylate buffer (0.1 M, pH 7.2). Samples were then washed in 0.1 M cacodylate buffer and adhered to coverslips previously coated with poly-L-lysine (Sigma Aldrich, St. Louis, MO, USA). After adhesion, post-fixation was performed using a solution of 1% OsO4 containing 0.8% potassium ferrocyanide (K4Fe (CN)6). Then, parasites were dehydrated in increasing concentrations of acetone (30%, 50%, 70%, 90%, and 100%), subject to critical-point drying, metalized with gold, and observed in a scanning electron microscope (SEM)- (JEOL JSM-7000F, Tokyo, Japan). Sample images were visualized using a 15 kV beam voltage.

[6] = Entrapment efficiency (filtration, absorbance at 320 nm); type: physicochemical; details: for Entrapment efficiency: mean of triplicate, 320 nm
Experimental: The MLS nanostructures were evaluated in terms of drug entrapment efficiency (EE), established as a ratio between the encapsulation (ED) over the initial quantity of the drug (ID), according to the Equation (1) below: (1) EE %=ED mg/ID mg×100 For the determination of EE, the S-loaded nanostructures were filtrated in 100 kDa Amicon filters (Amicon® Ultra 0.5 mL centrifuge filters - Millipore, Darmstadt, Germany) at 300× g for 10 min, 4 °C [17]. Unentrapped drug (filtered content) was collected and the absorbance was measured at 320 nm using a biophotometer (Eppendorf BioPhotometer® 6131, Hamburg, Germany) (Figure S1). […] Experiments were performed in triplicates.

[7] = cited from earlier work
Trypanosoma cruzi = test system: Trypanosoma cruzi; parameters: method as in PMID 24410674; details: acute phase, mice, after 40 days of treatment, compared to control; cited from earlier work

| Entrapment efficiency [6] | Entrapment efficiency ([6]; listed as N, N’-Squaramide 17) | Entrapment efficiency, single replicates ([6]; replicates 1-3, 320 nm, listed as N, N’-Squaramide 17) | Compound | IC50 [1] | IC50 [2] | CC50 at 72 h [3] | CC50 at 72 h [4] | Morphological alterations in epimastigotes [5] | Partition coefficient log P [7] | Reduction of parasitemia (Trypanosoma cruzi) |
| --- | --- | --- | --- | --- | --- | --- | --- | --- | --- | --- |
| – | – | – | O=C(Cn1ccnc1[N+](=O)[O-])NCc1ccccc1 [BZ, benznidazole, reference compound] | 15.8 ± 4.63 µM | 4.76 ± 4.45 µM | 284.4 ± 1.25 µM | 554.8 ± 4.9 µM | prominences in the cell body and distortion in the flagellum | – | – |
| 73.35% ± 2.05% | 73.35% | 75.71% and 72.07% and 72.35% | CCCCNc1c(N(C)CCCN(C)C)c(=O)c1=O [S, N, N’-Squaramide 17] | 13.1 ± 5.12 µM | 51.2 ± 4.91 µM | 736.2 ± 1.23 µM | 1654 ± 5.2 µM | a protuberance on the cell | 0.59 | 67% |
